Experiments:
mu opiate receptor (MOR) = biological target: T1, mu opiate receptor (MOR) (Rattus norvegicus, UniProt P33535); assay: MOR agonist activity using [35S]GTPγS binding assay in striatal membranes; format: biochemical; conditions: striatal membranes; for MOR agonist activity, [35S]GTPγS binding, FLNA-binding compound as agonist at 0.1 μM: 0.1 μM compound; for MOR agonist activity, [35S]GTPγS binding, FLNA-binding compound as agonist at 0.1 μM / MOR agonist activity, [35S]GTPγS binding, FLNA-binding compound as agonist at 1 μM: Series C-2; for MOR agonist activity, [35S]GTPγS binding, 1 μM + BFNA: 1 μM compound + 1 μM β-FNA (MOR antagonist); for MOR agonist activity, [35S]GTPγS binding, FLNA-binding compound as agonist at 1 μM: 1 μM compound
T1 construct: from tissue; host or cells: striatal tissue (membrane preparation)
T1 sequence (P33535 whole entry): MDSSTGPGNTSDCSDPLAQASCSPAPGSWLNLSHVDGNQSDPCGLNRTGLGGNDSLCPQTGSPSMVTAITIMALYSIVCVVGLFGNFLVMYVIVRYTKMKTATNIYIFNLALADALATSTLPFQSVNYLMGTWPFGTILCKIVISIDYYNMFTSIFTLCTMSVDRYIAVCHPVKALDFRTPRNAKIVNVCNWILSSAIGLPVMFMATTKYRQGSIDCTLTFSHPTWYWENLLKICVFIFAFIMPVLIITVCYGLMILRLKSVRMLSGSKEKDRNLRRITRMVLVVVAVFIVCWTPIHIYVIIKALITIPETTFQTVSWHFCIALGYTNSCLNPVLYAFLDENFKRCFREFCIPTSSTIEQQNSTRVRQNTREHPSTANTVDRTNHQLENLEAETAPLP
Description: To assess the mu opiate receptor (MOR) agonist activity of positive compounds from the FLNA screening, compounds were tested in a [^35S]GTPγS binding assay using striatal membranes. […] This assay measures a functional consequence of receptor occupancy at one of the earliest receptor-mediated events. The assay permits for traditional pharmacological parameters of potency, efficacy and antagonist affinity, with the advantage that agonist measures are not subjected to amplification or other modulation that may occur when analyzing parameters further downstream of the receptor.
Thus, striatal tissue was homogenized in 10 volumes of ice cold 25 mM HEPES buffer, pH 7.4, which contained 1 mM EGTA, 100 mM sucrose, 50 μg/ml leupeptin, 0.04 mM PMSF, 2 μg/ml soybean trypsin inhibitor and 0.2% 2-mercaptoethanol. The homogenates were centrifuged at 800×g for 5 minutes and the supernatants were centrifuged at 49,000×g for 20 minutes.
The resultant striatal membrane preparation (200 μg) was admixed and maintained (incubated) at 30° C. for 5 minutes in reaction buffer as above that additionally contained 1 mM MgCl2 and 0.5 nM [^35S]GTPγS (0.1 μCi/assay, PerkinElmer Life and Analytical Sciences) in a total volume of 250 μl and continued for 5 minutes in the absence or presence of 0.1-10 μM of an assayed compound of interest. The reaction was terminated by dilution with 750 μl of ice-cold reaction buffer that contained 20 mM MgCl2 and 1 mM EGTA and immediate centrifugation at 16,000×g for 5 minutes.
Normal rabbit serum (1 μl) was added to 1 ml of lysate and incubated at 25° C. for 30 minutes. Nonspecific immune complexes were removed by incubation with 25 μl of protein A/G-conjugated agarose beads at 25° C. for 30 minutes followed by centrifugation at 5,000×g at 4° C. for 5 minutes. The supernatant was divided and separately incubated at 25° C. for 30 minutes with antibodies raised against Gαo proteins (1:1,000 dilutions).
The immunocomplexes so formed were collected by incubation at 25° C. for 30 minutes with 40 μl of agarose-conjugated protein A/G beads and centrifugation at 5,000×g at 4° C. for 5 minutes. The pellet was washed and suspended in buffer containing 50 mM Tris-HCl, pH 8.0, and 1% NP-40. The radioactivity in the suspension was determined by liquid scintillation spectrometry.

α7nAChR-FLNA association = biological target: T2, α7nAChR-FLNA association (Rattus norvegicus, UniProt A0A8I5ZV49); assay: Rat frontal cortical synaptosomes treated with Aβ42, anti-FLNA immunoprecipitation / Western blot; format: cell-based
T2 construct: from tissue; host or cells: rat frontal cortical synaptosomes
T2 sequence (A0A8I5ZV49 1-2647): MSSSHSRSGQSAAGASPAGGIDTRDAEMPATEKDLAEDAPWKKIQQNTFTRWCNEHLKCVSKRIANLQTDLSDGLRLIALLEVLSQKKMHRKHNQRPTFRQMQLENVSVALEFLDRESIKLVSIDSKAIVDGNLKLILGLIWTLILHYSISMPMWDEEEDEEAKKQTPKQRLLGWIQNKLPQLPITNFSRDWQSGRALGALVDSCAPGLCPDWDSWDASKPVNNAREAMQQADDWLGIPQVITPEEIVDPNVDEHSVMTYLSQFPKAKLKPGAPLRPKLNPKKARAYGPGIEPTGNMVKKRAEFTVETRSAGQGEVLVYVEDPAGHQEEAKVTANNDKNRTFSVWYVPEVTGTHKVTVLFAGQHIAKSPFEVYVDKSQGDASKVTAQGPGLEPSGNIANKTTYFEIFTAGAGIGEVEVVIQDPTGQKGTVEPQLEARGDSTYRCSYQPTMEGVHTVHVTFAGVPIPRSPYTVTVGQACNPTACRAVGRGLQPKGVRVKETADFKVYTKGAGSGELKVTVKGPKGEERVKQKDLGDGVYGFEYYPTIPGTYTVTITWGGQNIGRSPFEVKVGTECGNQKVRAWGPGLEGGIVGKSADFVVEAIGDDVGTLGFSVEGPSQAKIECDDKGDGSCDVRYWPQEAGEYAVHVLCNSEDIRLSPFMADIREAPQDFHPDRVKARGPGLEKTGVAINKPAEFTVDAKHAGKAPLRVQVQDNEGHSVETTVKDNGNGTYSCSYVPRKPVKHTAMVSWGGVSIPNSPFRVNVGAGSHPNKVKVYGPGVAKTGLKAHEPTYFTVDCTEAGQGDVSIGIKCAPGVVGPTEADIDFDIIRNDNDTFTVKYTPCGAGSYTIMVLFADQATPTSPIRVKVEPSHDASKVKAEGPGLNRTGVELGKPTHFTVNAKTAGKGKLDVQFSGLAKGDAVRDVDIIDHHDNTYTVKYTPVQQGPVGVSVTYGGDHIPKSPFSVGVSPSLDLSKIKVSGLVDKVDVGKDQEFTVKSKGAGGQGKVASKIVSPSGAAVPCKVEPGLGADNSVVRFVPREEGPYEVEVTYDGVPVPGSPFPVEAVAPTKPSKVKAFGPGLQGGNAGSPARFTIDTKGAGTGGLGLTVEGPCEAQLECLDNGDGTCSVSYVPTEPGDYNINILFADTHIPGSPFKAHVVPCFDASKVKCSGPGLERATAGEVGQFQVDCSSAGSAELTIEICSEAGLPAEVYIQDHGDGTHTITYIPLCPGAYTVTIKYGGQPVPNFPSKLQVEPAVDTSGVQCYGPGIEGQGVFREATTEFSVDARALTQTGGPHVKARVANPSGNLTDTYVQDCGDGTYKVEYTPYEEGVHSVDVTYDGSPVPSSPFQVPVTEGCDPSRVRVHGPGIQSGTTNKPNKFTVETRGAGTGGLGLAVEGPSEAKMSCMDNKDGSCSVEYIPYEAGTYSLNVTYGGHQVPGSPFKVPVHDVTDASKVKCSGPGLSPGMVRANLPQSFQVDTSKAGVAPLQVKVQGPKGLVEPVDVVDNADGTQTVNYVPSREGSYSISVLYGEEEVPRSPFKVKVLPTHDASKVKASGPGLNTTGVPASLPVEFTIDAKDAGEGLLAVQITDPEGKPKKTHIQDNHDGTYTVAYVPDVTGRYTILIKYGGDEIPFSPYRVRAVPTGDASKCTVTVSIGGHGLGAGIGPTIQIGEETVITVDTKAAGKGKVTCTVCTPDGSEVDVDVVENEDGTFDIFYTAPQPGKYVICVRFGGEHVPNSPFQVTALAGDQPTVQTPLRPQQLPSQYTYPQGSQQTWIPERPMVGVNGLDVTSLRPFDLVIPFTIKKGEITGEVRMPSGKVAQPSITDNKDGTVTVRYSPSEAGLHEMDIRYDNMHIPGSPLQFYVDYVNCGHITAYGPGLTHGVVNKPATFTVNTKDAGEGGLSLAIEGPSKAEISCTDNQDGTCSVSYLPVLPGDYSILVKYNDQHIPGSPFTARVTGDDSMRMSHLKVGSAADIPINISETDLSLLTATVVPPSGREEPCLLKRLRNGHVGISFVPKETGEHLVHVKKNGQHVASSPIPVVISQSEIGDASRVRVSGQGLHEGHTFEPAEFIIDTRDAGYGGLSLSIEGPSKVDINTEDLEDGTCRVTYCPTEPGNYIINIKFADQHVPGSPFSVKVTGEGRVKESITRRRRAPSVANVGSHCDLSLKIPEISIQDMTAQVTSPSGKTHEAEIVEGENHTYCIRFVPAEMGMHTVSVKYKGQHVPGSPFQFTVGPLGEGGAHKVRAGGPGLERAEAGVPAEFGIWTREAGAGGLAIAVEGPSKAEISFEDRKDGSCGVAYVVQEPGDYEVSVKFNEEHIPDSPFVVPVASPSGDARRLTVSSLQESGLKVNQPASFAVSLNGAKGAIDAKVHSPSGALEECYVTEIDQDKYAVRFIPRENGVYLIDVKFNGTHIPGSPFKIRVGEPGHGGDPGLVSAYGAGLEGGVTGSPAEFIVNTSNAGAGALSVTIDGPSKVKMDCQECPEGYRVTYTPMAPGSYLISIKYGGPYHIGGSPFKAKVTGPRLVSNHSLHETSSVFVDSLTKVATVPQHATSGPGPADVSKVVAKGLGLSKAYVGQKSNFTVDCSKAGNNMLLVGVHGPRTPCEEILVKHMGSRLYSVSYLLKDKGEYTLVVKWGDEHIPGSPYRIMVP
Excerpt: The α7nAChR-FLNA complexes in the solubilized synaptosomes were immunoprecipitated with immobilized anti-FLNA and the α7nAChR and FLNA levels in the anti-FLNA immunoprecipitates determined by Western blotting (FIG. 14A) and quantified by densitometry for illustrative compounds (FIG. 14B). n=3. […] The letter designation “M” that accompanies many of the “C-series” compounds is omitted from FIG. 14, the remaining figures and most discussions of the figures and compounds hereinafter for ease in expression. Structural formulas of the compounds used in this and the other figures are provided hereinafter.
(§1) The complexes in the solubilized synaptosomes, and α7nAChR, TLR4 and FLNA levels in the anti-FLNA immunoprecipitates were determined by Western blotting (FIG. 15A) in which numerals outside of and to the left of the blots are as discussed before. Amounts present in the blots were quantified by densitometry (FIG. 15B). […] Structural formulas of the compounds used in this and the other figures are provided hereinafter.

[1] = biological target: T3, human FLNA-α7nAChR complex (Homo sapiens, UniProt P21333); assay: Supplemental ELISA for FLNA-α7nAChR complex (Example 8: specificity, accuracy, precision, linearity, detection limit)
T3 construct: To determine the levels of FLNA-α7nAChR, FLNA-TLR4 and α7nAChR-Aβ42 complexes in the lymphocytes; endogenous in cells; host or cells: lymphocytes from venous blood of AD patients and control subjects (ex vivo)
Description: The following ELISA method activities were carried out to quantify FLNA-α7nAChR complex: specificity; accuracy; precision/repeatability; linearity and range; and, detection limit.
To assure ELISA assay uniquely identifies human FLNA-α7nAChR complex, the cross reactivity to human FLNA-α7nAChR complex, unrelated human proteins human leptin and human chorionic gonadotropin (hLeptin and hCG) were added to the lymphocyte lysate preparations and the ELISA assay performed.
To assure the ELISA assay returns a value that is representative of the “true” value, a range of concentrations of recombinant human leptin was spiked into lysate sample with FLNA-α7nAChR complex. Recovery percent concentrations were measured and accuracy calculated.
To assure that three measurements of a single lysate sample (e.g., sample AD#63) made in the same assay provide the same result, three samples were measured using the ELISA assay, three times on the same day using the same methods (repeatability). Within-day RSD was calculated.
To assure that the response is linear over the range of expected sample values, OD 450 of different concentrations of human FLNA-α7nAChR complex were detected using the ELISA assay. […]

TLR4/FLNA = biological target: T4, TLR4/FLNA (Rattus norvegicus, UniProt A0A8I5ZV49); assay: Rat frontal cortical synaptosomes treated with Aβ42, anti-FLNA immunoprecipitation / Western blot; format: cell-based; conditions: 1 or 10 nM compound, simultaneously or 10 min prior to 0.1 μM Aβ42; Dunnett's test
T4 construct: from tissue; host or cells: rat frontal cortical synaptosomes
T4 sequence (A0A8I5ZV49 1-2647): as above
Description: as §1

[2] = biological target: FLNA pentapeptide VAKGL (SEQ ID NO: 1) (Homo sapiens, UniProt P21333); assay: FITC-NLX-based FLNA screening assay; format: binding; conditions: for Percent Binding Inhibition (FITC-NLX binding to Bn-VAKGL): 10 nM FITC-NLX
[3] = 0.1 or 1 nM compound, simultaneously with or 10 min prior to Aβ42

Molecule | MOR agonist activity, [35S]GTPγS binding, FLNA-binding compound as agonist at 0.1 μM (mu opiate receptor (MOR)) [%] | MOR agonist activity, [35S]GTPγS binding, 1 μM + BFNA (mu opiate receptor (MOR)) [%] | MOR agonist activity, [35S]GTPγS binding, FLNA-binding compound as agonist at 1 μM (mu opiate receptor (MOR)) [%] | further results
O=C1CNC2(CCNCC2)N1Cc1ccccc1 [Compound C0114M] | 114.0 | 35.9 | 144.3 | Effect on Aβ42-induced α7nAChR-FLNA association (in words) (α7nAChR-FLNA association; [3]): reduce α7nAChR-FLNA association
hLeptin: unrelated human proteins human leptin and human chorionic gonadotropin (hLeptin and hCG); Human recombinant leptin |  |  |  | Normalized OD, Average ([1]; 5 μg protein per well instead of lymphocyte lysate): 0.02; % Cross reactivity ([1]; 5 μg protein per well, relative to 5 μg AD#63 lysate): 4.3%
O=C1CNC2(CCN(CC3CC3)CC2)N1Cc1ccccc1 [Compound C0124M] | 252.0 | 61.4 | 305.1 | Effect on Aβ42-induced α7nAChR-FLNA association (in words) (α7nAChR-FLNA association; 1 or 10 nM compound, simultaneously or 10 min prior to 0.1 μM Aβ42): reduce α7nAChR-FLNA association; TLR4/FLNA ratio versus Aβ42 alone (in words) (TLR4/FLNA): statistically different from Aβ42 alone
CC1CCC(C(C)C)C(OCC(O)CN2CCCc3ccccc32)C1 (centres unmarked) [Compound A0068] |  |  |  | Effect on Aβ42-induced α7nAChR-FLNA association (in words) (α7nAChR-FLNA association; [3]): reduce α7nAChR-FLNA association
C=CCN1CC[C@]23c4c5ccc(O)c4O[C@H]2C(=O)CC[C@]3(O)[C@H]1C5 [(+) NLX, (+)naloxone, reference compound] |  |  |  | Effect on Aβ42-induced α7nAChR-FLNA association (in words) (α7nAChR-FLNA association; [3]): reduce α7nAChR-FLNA association
O=C1CNC2(CCN(S(=O)(=O)c3ccc(O)cc3)CC2)N1Cc1ccccc1 [Compound C0148M] |  |  |  | Percent Binding Inhibition (FITC-NLX binding to Bn-VAKGL) ([2]; 0.01 μM FLNA-binding compound): 46.2%; Percent Binding Inhibition (FITC-NLX binding to Bn-VAKGL) ([2]; 0.1 μM FLNA-binding compound): 52.0%; Percent Binding Inhibition (FITC-NLX binding to Bn-VAKGL) ([2]; 1 μM FLNA-binding compound): 57.0%
CN1CC[C@]23c4c5ccc(O)c4O[C@H]2[C@@H](O)C=C[C@H]3[C@H]1C5 [morphine, reference compound] |  |  |  | Binding to the FLNA pentapeptide of SEQ ID NO: 1 (in words) [2]: do not bind
COc1ccc(S(=O)(=O)N2CCOC23CCCNC3)cc1 (centres unmarked) [Compound C0145M-3] | 193.0 | 87.0 | 289.2 | 
O=C1CN(C2CCc3ccccc3C2)C2(CCN(S(=O)(=O)c3ccccc3)CC2)N1 (centres unmarked) [C0136M (P5)] | 176.8 | 74.5 | 237.3 | 
C=CCN1CCC2(CC1)OCCN2S(=O)(=O)c1ccc(OC)cc1 [Compound C0091M] | 207.9 | 80.8 | 274.4 | 
O=S(=O)(c1ccccc1Oc1ccccc1)N1CCC2(CC1)NCCO2 [Compound C0149M-2] | 209.8 | 93.4 | 406.7 | 

— patent publication US10222368B2 (priority 2012, dated 2019)
